SMILES strings stand for the structures. pEC50: −log10 of the molar value.

This assay deals with T1, human APJ receptor (Homo sapiens, UniProt P35414).
T1 construct: expressed in transfected cells; host or cells: HEK293
T1 sequence (P35414 1-380): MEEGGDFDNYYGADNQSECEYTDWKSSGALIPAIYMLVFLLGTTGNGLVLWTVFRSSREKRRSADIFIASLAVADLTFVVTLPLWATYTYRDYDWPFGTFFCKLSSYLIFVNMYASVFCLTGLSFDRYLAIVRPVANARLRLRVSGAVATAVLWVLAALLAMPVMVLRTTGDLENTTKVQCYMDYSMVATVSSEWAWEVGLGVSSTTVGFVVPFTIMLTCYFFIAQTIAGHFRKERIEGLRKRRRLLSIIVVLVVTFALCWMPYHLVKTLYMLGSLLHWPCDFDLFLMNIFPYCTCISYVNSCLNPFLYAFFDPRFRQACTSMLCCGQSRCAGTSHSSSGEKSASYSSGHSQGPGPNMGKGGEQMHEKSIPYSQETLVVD
The assay is described as follows: Intracellular cAMP accumulation assay (APJ hcAMP, HTRF). Format: cell-based. Conditions: HEK293 cells stably expressing human APJ receptor; inhibition of forskolin-mediated cAMP production; read-out: APJ cAMP Potency range. As for the experimental part:
Intracellular cAMP Accumulation Assay
HEK293 cells stably expressing human APJ receptor were used to assess the activity of compounds. Cultured cells were detached and resuspended in the cAMP Homogeneous Time-Resolved Fluorescence (HTRF) assay buffer (Cisbio cat; #62AM4PEJ). The assay was performed in 384-well assay plates (Perkin-Elmer; cat #6008289) according to assay protocol provided by the manufacturer. Serial dilutions of a compound together with assay buffer containing […] IBMX and 2 μM forskolin were added to each well containing 5,000 cells and incubated for 30 minutes at room temperature. Subsequently, cAMP D2 reagent was added in the lysis buffer followed by the EuK antibody (Cisbio; cat #62AM4PEJ) and incubated for 60 min. The fluorescence emission ratio was measured using fluorometer. The intracellular cAMP concentrations (compound-stimulated inhibition of forskolin-mediated cAMP production) were calculated by extrapolation from a standard curve using known cAMP concentrations. The EC50 values were obtained by fitting the data to a sigmoidal concentration-response curve with variable slope. The maximal achievable inhibition of forskolin-induced cAMP levels (Ymax) for each compound was expressed as relative percentage of inhibition attained using pyroglutamated apelin-13 ((Pyr1)apelin-13) peptide, which was set to 100%.
The examples disclosed below were tested in the APJ in vitro assays described above and were found having human APJ cyclic AMP (hcAMP) activity. The EC50 value of each compound is presented at the end of the example description.
The biological activity of the exemplified compounds of this invention determined by the assay described above is shown at the end of each example.
For orientation: Changes in cAMP serve as a functional read-out for many G protein-coupled receptors.
As for `CCCCc1nc(=O)c(Cc2cccc(-c3ccc(F)nc3C)c2)c(O)n1[C@@H](CC)c1cc(F)cc(F)c1` [Example 130, 2-butyl-1-[(1S)-1-(3,5-difluorophenyl)propyl]-5-{[3-(6-fluoro-2-methylpyridin-3-yl)phenyl]methyl}-6-hydroxy-1,4-dihydropyrimidin-4-one], the pEC50 was 8.00 to 11.00.
Turning to `COc1cccc(OC)c1-n1c(CCC(C)C)nc(O)c(Cc2ccc(-n3cc(C)ccc3=O)cc2)c1=O` [Example 54, 3-(2,6-dimethoxyphenyl)-6-hydroxy-5-{[4-(5-methyl-2-oxo-1,2-dihydropyridin-1-yl)phenyl]methyl}-2-(3-methylbutyl)-3,4-dihydropyrimidin-4-one], the pEC50 is 8.00 to 11.00.
Consider `CCCCc1nc(O)c(Cc2ccc(-n3cc(Cl)ccc3=O)cc2)c(=O)n1-c1c(OC)cccc1OC` [Example 49, 2-butyl-5-{[4-(5-chloro-2-oxo-1,2-dihydropyridin-1-yl)phenyl]methyl}-3-(2,6-dimethoxyphenyl)-6-hydroxy-3,4-dihydropyrimidin-4-one], for which the pEC50 was 8.00 to 11.00.
Take `CCc1cccc(CC)c1-n1c(-c2ccn(CC(C)C)n2)nc(=O)c(Cc2ccc(-c3ccnc(F)c3C)c(F)c2)c1O` [Example 91, 1-(2,6-diethylphenyl)-5-{[3-fluoro-4-(2-fluoro-3-methylpyridin-4-yl)phenyl]methyl}-6-hydroxy-2-[1-(2-methylpropyl)-1H-pyrazol-3-yl]-1,4-dihydropyrimidin-4-one]: the pEC50 is 6.52 to 7.00.
Regarding `CCCCc1nc(=O)c(Cc2ccc(-c3ccnc(F)c3C)cc2)c(O)n1[C@@H](CC)c1cccc(C#N)c1` [Example 99, 3-[(1S)-1-(2-butyl-5-{[4-(2-fluoro-3-methylpyridin-4-yl)phenyl]methyl}-6-hydroxy-4-oxo-1,4-dihydropyrimidin-1-yl)propyl]benzonitrile], the pEC50 was 8.00 to 11.00.
In the case of `CCc1cccc(CC)c1-n1c(-c2ccn(C)n2)nc(=O)c(Cc2ccc(-c3ccncc3C)c(F)c2)c1O` [Example 70, 1-(2,6-diethylphenyl)-5-{[3-fluoro-4-(3-methylpyridin-4-yl)phenyl]methyl}-6-hydroxy-2-(1-methyl-1H-pyrazol-3-yl)-1,4-dihydropyrimidin-4-one] it was 8.00 to 11.00.
`CCOCc1nc(=O)c(Cc2ccc(-c3ccnc(F)c3C)cc2)c(O)n1[C@@H](COC)c1cc(F)cc(F)c1` [Example 126, 1-[(1R)-1-(3,5-difluorophenyl)-2-methoxyethyl]-2-(ethoxymethyl)-5-{[4-(2-fluoro-3-methylpyridin-4-yl)phenyl]methyl}-6-hydroxy-1,4-dihydropyrimidin-4-one]: the pEC50 was 8.00 to 11.00.
Regarding `CCCCc1nc(=O)c(Cc2ccc(-c3ccc(F)nc3C)cc2)c(O)n1-c1c(CC)cccc1CC` [Example 64, 2-butyl-1-(2,6-diethylphenyl)-5-{[4-(6-fluoro-2-methylpyridin-3-yl)phenyl]methyl}-6-hydroxy-1,4-dihydropyrimidin-4-one], the pEC50 is 8.00 to 11.00.
With `CCCCc1nc(=O)c(Cc2cccc(-c3cccnc3C)c2)c(O)n1[C@@H](CC)c1cc(F)cc(F)c1` [Example 129, 2-butyl-1-[(1S)-1-(3,5-difluorophenyl)propyl]-6-hydroxy-5-{[3-(2-methylpyridin-3-yl)phenyl]methyl}-1,4-dihydropyrimidin-4-one], the pEC50 is 7.00 to 8.00.
Consider `CCCCc1nc(O)c(Cc2cnn(-c3ccc(C)cc3)c2)c(=O)n1-c1c(OC)cccc1OC` [Example 25, 2-butyl-3-(2,6-dimethoxyphenyl)-6-hydroxy-5-{[1-(4-methylphenyl)-1H-pyrazol-4-yl]methyl}-3,4-dihydropyrimidin-4-one], for which the pEC50 was 8.00 to 11.00.
Consider `CC[C@@H](c1cc(F)cc(F)c1)n1c(COC(C)C)nc(=O)c(Cc2ccc(-c3ccncc3C)cc2)c1O` [Example 114, 1-[(1S)-1-(3,5-difluorophenyl)propyl]-6-hydroxy-5-{[4-(3-methylpyridin-4-yl)phenyl]methyl}-2-[(propan-2-yloxy)methyl]-1,4-dihydropyrimidin-4-one], for which the pEC50 is 8.00 to 11.00.
As to `CCCCc1nc(O)c(Cc2ccc(-c3ncon3)c(F)c2)c(=O)n1-c1c(OC)cccc1OC` [Example 13, 2-butyl-3-(2,6-dimethoxyphenyl)-5-{[3-fluoro-4-(1,2,4-oxadiazol-3-yl)phenyl]methyl}-6-hydroxy-3,4-dihydropyrimidin-4-one], the pEC50 is 8.00 to 11.00.
Take `CCCCc1nc(O)c(Cc2csc(-c3ccc(Cl)cc3)n2)c(=O)n1-c1c(OC)cccc1OC` [Example 22, 2-butyl-5-{[2-(4-chlorophenyl)-1,3-thiazol-4-yl]methyl}-3-(2,6-dimethoxyphenyl)-6-hydroxy-3,4-dihydropyrimidin-4-one]: the pEC50 is 7.00 to 8.00.
In the case of `CCCCc1nc(O)c(Cc2ccn(-c3ccc(Cl)cc3)n2)c(=O)n1-c1c(OC)cccc1OC` [Example 24, 2-butyl-5-{[1-(4-chlorophenyl)-1H-pyrazol-3-yl]methyl}-3-(2,6-dimethoxyphenyl)-6-hydroxy-3,4-dihydropyrimidin-4-one] it was 8.00 to 11.00.
In the case of `COc1cccc(OC)c1-n1c(COC2CCC2)nc(O)c(Cc2ccc(-n3ccccc3=O)cc2)c1=O` [Example 39, 2-(cyclobutoxymethyl)-3-(2,6-dimethoxyphenyl)-6-hydroxy-5-{[4-(2-oxo-1,2-dihydropyridin-1-yl)phenyl]methyl}-3,4-dihydropyrimidin-4-one] it was 8.00 to 11.00; in that of `CCCCc1nc(=O)c(Cc2ccc(-c3cccnc3C)cc2)c(O)n1[C@@H](CC)c1cccc(C#N)c1` [Example 96, 3-[(1S)-1-(2-butyl-6-hydroxy-5-{[4-(2-methylpyridin-3-yl)phenyl]methyl}-4-oxo-1,4-dihydropyrimidin-1-yl)propyl]benzonitrile], 8.00 to 11.00.
For the compound `CCCCc1nc(O)c(Cc2ccc(-c3ccc(C)nc3)cc2)c(=O)n1-c1c(OC)cccc1OC` [Example 44, 2-butyl-3-(2,6-dimethoxyphenyl)-6-hydroxy-5-{[4-(6-methylpyridin-3-yl)phenyl]methyl}-3,4-dihydropyrimidin-4-one], the pEC50 is 7.00 to 8.00.
On to `CCCCc1nc(O)c(Cc2ccc(-c3ncon3)cc2F)c(=O)n1-c1c(OC)cccc1OC` [Example 6, 2-butyl-3-(2,6-dimethoxyphenyl)-5-{[2-fluoro-4-(1,2,4-oxadiazol-3-yl)phenyl]methyl}-6-hydroxy-3,4-dihydropyrimidin-4-one], for which the pEC50 is 8.00 to 11.00.
`COc1cccc(OC)c1-n1c(COC(C)C)nc(O)c(Cc2ccc(-n3cc(Cl)ccc3=O)cc2)c1=O` [Example 60, 5-{[4-(5-chloro-2-oxo-1,2-dihydropyridin-1-yl)phenyl]methyl}-3-(2,6-dimethoxyphenyl)-6-hydroxy-2-[(propan-2-yloxy)methyl]-3,4-dihydropyrimidin-4-one]: the pEC50 is 8.00 to 11.00.
Consider `COc1cccc(OC)c1-n1c(CCC(C)C)nc(O)c(Cc2ccc(-n3cc(Cl)ccc3=O)cc2)c1=O` [Example 53, 5-{[4-(5-chloro-2-oxo-1,2-dihydropyridin-1-yl)phenyl]methyl}-3-(2,6-dimethoxyphenyl)-6-hydroxy-2-(3-methylbutyl)-3,4-dihydropyrimidin-4-one], for which the pEC50 is 8.00 to 11.00.
For the compound `CCc1cccc(CC)c1-n1c(-c2nc(C)cs2)nc(=O)c(Cc2ccc(-c3cccn(C)c3=O)c(F)c2)c1O` [Example 83, 1-(2,6-diethylphenyl)-5-{[3-fluoro-4-(1-methyl-2-oxo-1,2-dihydropyridin-3-yl)phenyl]methyl}-6-hydroxy-2-(4-methyl-1,3-thiazol-2-yl)-1,4-dihydropyrimidin-4-one], the pEC50 was 8.00 to 11.00.
Take `CCCCc1nc(O)c(Cc2ccc(NC(C)=O)cc2)c(=O)n1-c1c(OC)cccc1OC` [Example 9, N-(4-{[2-butyl-1-(2,6-dimethoxyphenyl)-4-hydroxy-6-oxo-1,6-dihydropyrimidin-5-yl]methyl}phenyl)acetamide]: the pEC50 is 7.00 to 8.00.
Regarding `CCCCc1nc(O)c(Cc2ccc(OC)cc2)c(=O)n1-c1c(OC)cccc1OC` [Example 2, 2-butyl-3-(2,6-dimethoxyphenyl)-6-hydroxy-5-[(4-methoxyphenyl)methyl]-3,4-dihydropyrimidin-4-one], the pEC50 was 7.00 to 8.00.
With `CCCCc1nc(=O)c(Cc2ccc(-c3ccccc3)cc2)c(O)n1-c1c(CC)cccc1CC` [Example 68, 5-({[1,1′-biphenyl]-4-yl}methyl)-2-butyl-1-(2,6-diethylphenyl)-6-hydroxy-1,4-dihydropyrimidin-4-one], the pEC50 is 7.00 to 8.00.

(Values after US11390616B2 (BRISTOL-MYERS SQUIBB COMPANY, priority 2015, dated 2022).)
